In paper PMC8958504 (Journal of Medicinal Chemistry, 2022):

Columns and labels:
hMAO-A = target: T1, hMAO-A (Homo sapiens, UniProt P21397); assay: biochemical; conditions: read-out: hMAO-A (IC50); recombinant hMAO-A, p-tyramine substrate
T1 sequence (P21397 1-527): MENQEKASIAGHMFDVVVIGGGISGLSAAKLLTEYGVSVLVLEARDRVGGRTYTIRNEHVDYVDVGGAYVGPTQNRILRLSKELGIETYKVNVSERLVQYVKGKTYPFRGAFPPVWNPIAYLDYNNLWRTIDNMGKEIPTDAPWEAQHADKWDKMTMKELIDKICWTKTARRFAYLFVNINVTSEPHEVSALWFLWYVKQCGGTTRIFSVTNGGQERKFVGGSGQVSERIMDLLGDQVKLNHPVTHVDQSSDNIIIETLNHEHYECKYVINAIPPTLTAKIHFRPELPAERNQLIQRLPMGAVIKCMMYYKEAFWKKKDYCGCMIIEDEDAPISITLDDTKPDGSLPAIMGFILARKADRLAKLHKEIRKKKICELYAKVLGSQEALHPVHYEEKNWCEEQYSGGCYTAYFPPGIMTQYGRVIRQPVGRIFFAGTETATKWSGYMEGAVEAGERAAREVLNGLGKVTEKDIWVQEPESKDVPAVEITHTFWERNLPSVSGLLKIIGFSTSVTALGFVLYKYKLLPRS
Experimental: (§1) The hMAO-A/B inhibition of all compounds was determined using the Amplex Red MAO assay kit.
(§2) Assays were performed following the general procedure previously described.[98] […] The specific fluorescence emission was calculated after subtracting the background activity, which was determined from wells containing all components except the hMAO isoforms, which were replaced with PBS.

hMAO-B = target: T2, hMAO-B (Homo sapiens, UniProt P27338); assay: biochemical; conditions: read-out: hMAO-B (IC50); recombinant hMAO-B, p-tyramine substrate
T2 sequence (P27338 1-520): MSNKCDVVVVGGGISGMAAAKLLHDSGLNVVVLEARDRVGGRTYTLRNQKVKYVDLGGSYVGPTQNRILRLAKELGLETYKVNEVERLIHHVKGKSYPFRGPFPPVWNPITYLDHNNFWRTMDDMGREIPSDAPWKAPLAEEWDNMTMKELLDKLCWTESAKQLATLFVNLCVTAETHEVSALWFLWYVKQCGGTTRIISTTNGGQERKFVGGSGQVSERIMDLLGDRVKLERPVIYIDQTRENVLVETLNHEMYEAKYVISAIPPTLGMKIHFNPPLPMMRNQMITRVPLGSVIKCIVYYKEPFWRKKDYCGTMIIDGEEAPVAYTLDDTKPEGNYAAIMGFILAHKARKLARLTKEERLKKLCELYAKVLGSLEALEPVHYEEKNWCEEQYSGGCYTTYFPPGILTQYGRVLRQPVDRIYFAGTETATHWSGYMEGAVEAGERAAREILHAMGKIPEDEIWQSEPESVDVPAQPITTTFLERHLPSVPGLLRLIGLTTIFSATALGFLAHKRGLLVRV
Experimental: as §1, §2

[1] = Oxygen radical absorbance capacity (ORAC-FL) assay; conditions: trolox = 1.0
Experimental: 2,2′-Azobis-(amidinopropane) dihydrochloride (AAPH), trolox, and fluorescein (FL) were purchased from Sigma-Aldrich. The reaction was carried out in a 75 mM phosphate buffer (pH 7.4), and the final reaction mixture was 200 μL. […] Antioxidant curves (fluorescence vs time) were first normalized to the curve of the blank corresponding to the same assay, and the area under the curve (AUC) of fluorescence decay was calculated. The net AUC corresponding to a sample was calculated by subtracting the AUC corresponding to the blank. Regression equations between the net AUC and antioxidant concentration were calculated for all the samples.

QR2 = target: T3, QR2 (Mesocricetus auratus, UniProt A0ABM2YAB8); assay: biochemical; conditions: for inhibition at 10 µM: read-out: QR2 percentage of inhibition (in brackets)
T3 sequence (A0ABM2YAB8 1-231): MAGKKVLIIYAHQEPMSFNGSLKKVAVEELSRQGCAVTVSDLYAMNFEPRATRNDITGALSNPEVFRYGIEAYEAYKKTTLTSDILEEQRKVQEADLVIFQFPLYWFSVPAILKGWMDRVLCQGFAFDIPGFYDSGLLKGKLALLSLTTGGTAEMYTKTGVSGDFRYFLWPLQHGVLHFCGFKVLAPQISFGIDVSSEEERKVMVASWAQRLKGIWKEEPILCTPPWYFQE
Experimental: The QR2 experiments were performed in membrane homogenates of hamster brains (https://www.eurofins.fr, catalog ref. 0088). […] First, radioligand displacement was measured at a fixed compound concentration (10 μM) in each receptor.

in vitro = in vitro ADME; conditions: for Papp at 240 min, 100 μg mL^–1: PAMPA, pH 7.4, class from PAMPA-BBB Pe, read-out: CNS-permeability prediction; for PAMPA-BBB (Pe, 10^–6 cm s^–1): porcine brain lipid, PBS/EtOH (70:30), 240 min, 25 °C
hMT2R = target: T4, hMT2R (Homo sapiens, UniProt P49286); assay: hMT2R radioligand displacement in transfected CHO cells; conditions: read-out: hMT2R binding affinity (Ki)
T4 construct: host or cells: Chinese hamster ovary cells
T4 sequence (P49286 1-362): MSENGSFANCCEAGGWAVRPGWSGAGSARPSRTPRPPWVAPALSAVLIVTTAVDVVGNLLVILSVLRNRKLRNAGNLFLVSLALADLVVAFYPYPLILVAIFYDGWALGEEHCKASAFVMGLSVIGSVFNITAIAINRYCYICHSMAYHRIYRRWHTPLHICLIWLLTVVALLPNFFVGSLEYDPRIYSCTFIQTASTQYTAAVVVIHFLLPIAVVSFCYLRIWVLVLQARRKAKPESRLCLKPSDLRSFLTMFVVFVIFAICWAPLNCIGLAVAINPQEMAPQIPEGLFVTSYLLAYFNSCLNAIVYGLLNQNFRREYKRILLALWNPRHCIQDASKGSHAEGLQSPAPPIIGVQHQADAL
Experimental: Assays in MT1R and MT2R were carried out using human receptors that were stably transfected in Chinese hamster ovary cells (https://www.eurofins.fr, catalog refs. 1538 and 1687). The QR2 experiments were performed in membrane homogenates of hamster brains (https://www.eurofins.fr, catalog ref. 0088). […] First, radioligand displacement was measured at a fixed compound concentration (10 μM) in each receptor. […] (E)-Resveratrol and melatonin were tested for comparative purposes.

[2] = tested on: NRF2-ARE signaling pathway; assay: cells; format: cell-based; conditions: concentration required to double luciferase activity, AREc32 cells, 24 h
Experimental: AREc32 cells were plated in 96-well white plates (2 × 10^4 cells/well). […]. The AREc32 cells constitutively express the plasmid pGL-8xARE that implements eight copies of the EpRE sequences, followed by the luciferase reporter gene. Therefore, NRF2 induction is related to the activation of EpRE sequences, expressing luciferase at the same extent as EpRE sequences are activated. The Luciferase Assay System (Promega E1500) was used according to the provider’s protocol, and luminescence was quantified in an Orion II microplate luminometer (Berthold, Germany). Fold induction of luciferase activity was normalized to basal conditions. Data are expressed as CD values, expressing the concentration required to double the luciferase activity. CD values were calculated from dose–response curves generated from the fold induction of control conditions versus inducer concentration and fitted by nonlinear regression and data interpolated to twofold induction concentration.[68]

mouse hippocampal slices = conditions: 1 μM, OA 1 μM, 6 h
Experimental: Once the treatment was ended, the cell viability was measured by the MTT method, cell death with the fluorescent probe PI (1 μg/mL), and ROS production with the fluorescent probe H2DCFDA (10 μL/mL).
Fluorescence from whole slices was measured as the mean intensity with an inverted Nikon eclipse T2000-U microscope (Nikon Instruments). […] The results were normalized to the basal condition, which was considered as 100%. Image analysis was performed using Fiji software.

[3] = tested on: human neuroblastoma SH-SY5Y cell line; assay: Cell viability per se in SH-SY5Y cells (MTT); conditions: 100 μM, 24 h
Experimental: The cells from the 3rd to 12th passage were seeded at a density of 80,000 cells/well in 96-well plates and were used to assess the properties of our compounds.
After treatment, the SH-SY5Y cells, rat primary neuronal cultures, and hippocampal slices were incubated for 90 min with tetrazolium salt MTT (0.5 mg/mL) solution. This assay is based on the reduction of MTT (yellow salt) to purple insoluble formazan crystals by oxidoreductase enzymes from living cells. Thereafter, in order to solubilize the formazan crystal, the cells/slices were incubated for another 45 min in dimethyl sulfoxide (DMSO). […] The basal absorbance was set to 100%, and the results were normalized to basal conditions.

adult mice NSCs = assay: Neurogenic studies in SGZ-derived neurospheres; format: cell-based, mouse; conditions: 10 μM, data not shown
Experimental: Adult mice NSCs were isolated from SGZ of the dentate gyrus of the hippocampus and grown as free-floating neurospheres (NS).[72],[78] The neurogenic potential of each compound was determined using fluorescence confocal microscopy by quantifying the expression of two well-known neuronal markers: human β-III-tubulin (TuJ-1 clone) and microtubule-associated protein 2 (MAP-2). TuJ-1 is expressed in immature neurons, whereas the expression of MAP-2 indicates a consolidated mature neuronal stage.[79] Given that neurogenesis involves not only the proliferation of NSC but also the migration of newly generated cells, the greatest migration distance promoted by each compound was also measured (Figure 8).
Adult male C57BL/6 mice (3 months old) were used in order to determine neurogenesis activity. […] DAPI staining was used as a nuclear marker. Fluorescent representative images were acquired with a Nikon fluorescence microscope 90i coupled to a digital camera Qi. The microscope configuration was adjusted to produce the optimum signal-to-noise ratio. […] Quantification was undertaken using the image analySIS software (Soft Imaging System Corp., Münster, Germany) and normalized to total nuclei (DAPI-stained). The intensity of immunostaining of neurites from TuJ1-labeled cells and the number of MAP-2-positive cells were estimated from nine neurospheres per condition over three independent experiments. The outgrowth of the neurosphere cells was examined under a phase-contrast microscope and the farthest distance of cell migration was calculated from the edge of the sphere. At least 10 plated neurospheres per treatment were analyzed.

[4] = tested on: rat primary cortical neurons; assay: Neuroprotection against OA-induced toxicity in rat primary cortical neuronal cultures (MTT); conditions: compound 1 μM, OA 10 nM

| SMILES | IC50 (hMAO-A) | IC50 (hMAO-B) | ORAC (trolox equiv) [1] | IC50 (QR2) | inhibition at 10 µM (QR2) | Papp at 240 min, 100 μg mL^–1 (in vitro) | PAMPA-BBB (Pe, 10^–6 cm s^–1) (in vitro) | Ki (hMT2R) | NRF2 (CD, μM) [2] | cell viability (MTT) (mouse hippocampal slices) | reduction of cell viability [3] | capacity to differentiate NSCs (adult mice NSCs) | neuroprotection against OA-induced toxicity [4] |
| --- | --- | --- | --- | --- | --- | --- | --- | --- | --- | --- | --- | --- | --- |
| C#CCNC(=O)/C=C/c1cccc(OC)c1 [6d, (2E)-3-(3-Methoxyphenyl)-N-(prop-2-yn-1-yl)prop-2-enamide] | > 50 µM | > 50 µM | <0.1 trolox equiv | ~10 µM | 76% | > 4 ×10⁻⁶ cm/s | 4.1 ± 0.2 10^–6 cm s^–1 | 1.4 µM | – | – | – | – | – |
| Oc1ccc(/C=C/c2cc(O)cc(O)c2)cc1 [(E)-resveratrol, reference compound] | – | 29.9 ± 1.8 µM | – | – | – | – | – | – | 21.0 ± 2.0 µM | significantly increased the cell viability to almost basal levels, in a similar way to resveratrol treatment | over 50% | – | – |
| C#CCn1nc(/C=C/c2ccccc2)oc1=O [4a, 5-[(E)-2-Phenylethenyl]-3-(prop-2-yn-1-yl)-1,3,4-oxadiazol-2(3H)-one] | > 50 µM | 9.87 ± 1.22 µM | <0.1 trolox equiv | > 10 µM | 44% | > 4 ×10⁻⁶ cm/s | 13.6 ± 0.5 10^–6 cm s^–1 | – | 16.9 ± 0.4 µM | – | around 30% | poor capacity to differentiate NSCs | not able to significantly reduce neuronal death |
